For test [1], the target named is T1, Polyunsaturated fatty acid 5-lipoxygenase (Rattus norvegicus, UniProt P12527).
T1 sequence (P12527 whole entry): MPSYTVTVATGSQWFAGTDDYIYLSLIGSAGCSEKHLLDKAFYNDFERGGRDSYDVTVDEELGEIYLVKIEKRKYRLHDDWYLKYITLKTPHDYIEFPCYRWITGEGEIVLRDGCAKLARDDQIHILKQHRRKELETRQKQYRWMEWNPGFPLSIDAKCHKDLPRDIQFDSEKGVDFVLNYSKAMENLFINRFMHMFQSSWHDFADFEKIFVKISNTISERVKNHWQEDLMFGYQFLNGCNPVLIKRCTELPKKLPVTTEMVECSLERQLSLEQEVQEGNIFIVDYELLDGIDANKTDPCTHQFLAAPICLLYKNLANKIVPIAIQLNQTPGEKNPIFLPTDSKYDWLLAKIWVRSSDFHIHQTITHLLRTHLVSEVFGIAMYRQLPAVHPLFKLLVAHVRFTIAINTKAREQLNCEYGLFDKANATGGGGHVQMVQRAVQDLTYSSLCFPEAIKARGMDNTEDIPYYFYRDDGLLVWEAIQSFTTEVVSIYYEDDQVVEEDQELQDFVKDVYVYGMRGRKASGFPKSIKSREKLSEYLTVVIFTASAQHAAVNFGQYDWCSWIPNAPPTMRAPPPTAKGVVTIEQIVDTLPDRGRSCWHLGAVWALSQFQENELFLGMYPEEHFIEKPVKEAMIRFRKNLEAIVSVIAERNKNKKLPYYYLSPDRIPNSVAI
As to the kind of experiment: Inhibition of 5-Lipoxygenase of rat basophilic leukemia cells. The format is cell-based, RBL-1.

The next test concerns the target T2, Cyclooxygenase (Bos taurus, UniProt O62664+O62698).
T2 sequence (O62664 whole entry): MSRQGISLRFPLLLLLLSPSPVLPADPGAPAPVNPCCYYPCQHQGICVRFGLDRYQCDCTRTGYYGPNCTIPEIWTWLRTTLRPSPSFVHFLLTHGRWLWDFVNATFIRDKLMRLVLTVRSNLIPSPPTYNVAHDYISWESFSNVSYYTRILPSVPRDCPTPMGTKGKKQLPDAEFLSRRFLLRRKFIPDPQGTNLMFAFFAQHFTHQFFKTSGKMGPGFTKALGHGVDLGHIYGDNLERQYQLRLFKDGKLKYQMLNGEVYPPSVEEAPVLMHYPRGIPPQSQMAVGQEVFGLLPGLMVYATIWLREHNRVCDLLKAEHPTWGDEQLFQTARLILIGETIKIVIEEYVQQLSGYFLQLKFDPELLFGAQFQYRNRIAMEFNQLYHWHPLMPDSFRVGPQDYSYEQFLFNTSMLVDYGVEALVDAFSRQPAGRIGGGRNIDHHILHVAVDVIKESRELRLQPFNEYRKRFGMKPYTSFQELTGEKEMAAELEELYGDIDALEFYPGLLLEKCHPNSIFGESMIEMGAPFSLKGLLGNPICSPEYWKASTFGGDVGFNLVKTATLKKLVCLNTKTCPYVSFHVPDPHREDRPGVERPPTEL
T2 sequence (O62698 whole entry): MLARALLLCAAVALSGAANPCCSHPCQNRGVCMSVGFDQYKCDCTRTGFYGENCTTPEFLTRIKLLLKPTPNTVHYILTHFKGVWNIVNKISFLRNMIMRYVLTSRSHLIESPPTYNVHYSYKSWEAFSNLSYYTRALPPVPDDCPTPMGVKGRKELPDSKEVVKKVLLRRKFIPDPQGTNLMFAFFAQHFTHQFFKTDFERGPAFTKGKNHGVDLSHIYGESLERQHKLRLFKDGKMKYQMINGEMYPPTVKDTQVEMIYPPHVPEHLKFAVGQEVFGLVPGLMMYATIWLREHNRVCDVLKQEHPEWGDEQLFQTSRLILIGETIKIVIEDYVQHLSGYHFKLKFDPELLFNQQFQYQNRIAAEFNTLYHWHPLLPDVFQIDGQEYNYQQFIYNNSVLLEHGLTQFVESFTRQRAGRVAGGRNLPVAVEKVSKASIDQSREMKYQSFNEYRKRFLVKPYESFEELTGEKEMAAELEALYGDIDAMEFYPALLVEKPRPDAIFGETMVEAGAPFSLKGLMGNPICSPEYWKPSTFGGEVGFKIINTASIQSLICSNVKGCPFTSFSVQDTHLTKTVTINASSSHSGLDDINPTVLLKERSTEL
As to the kind of experiment: Compound was evaluated for inhibition against cyclooxygenase of bovine seminal vesicles. The format is protein assay.

The record followed here is ChEMBL document CHEMBL1126456, “Vinylogous hydroxamic acids: 5-lipoxygenase inhibitors” (Bioorg Med Chem Lett, 1992).

As for `C/C(=C/N(O)Cc1ccccc1)C(=O)c1ccc(F)cc1`, it took 0.3 µM to reach half-maximal inhibition in test [1] (IC50).
As to `O=C(/C=C\N(O)Cc1ccccc1)c1ccc(F)cc1`, the IC50 – broadly, the concentration needed to halve the response being measured – at Cyclooxygenase was more than 750 µM.
`CC(=O)ON(/C=C\C(=O)c1ccc(F)cc1)Cc1ccccc1`: the IC50 against Cyclooxygenase is more than 750 µM.
Same read-out and setting: the value for `CON(/C=C\C(=O)c1ccc(F)cc1)Cc1ccccc1` was more than 750 µM; that for `O=C(/C=C\N(O)C1CCCCC1)c1ccc(F)cc1` was more than 750 µM; that for `O=C1CCN(c2ccccc2)N1` [PHENIDONE] was 6.9 µM.
As for `CC(c1cc2ccccc2s1)N(O)C(N)=O` (configuration not stated) [ZILEUTON], at Cyclooxygenase, the IC50 is more than 750 µM.
